Common to all, as to test: inhibition of tumour cell growth, NCI panel, 48 h
Assay [1] deals with HOP-92.
The subject of assay [2] is T47D.
The subject of assay [3] is COLO 205.
Assay [4] concerns MDA-N.
The subject of assay [5] is NCI/ADR-RES.
In assay [6] the test system is A498.
In assay [7] the test system is OVCAR-5.
The test system of assay [8] is SF-295.
Assay [9] concerns NCI-H226.
Assay [10] deals with SN12C.
Assay [11] concerns OVCAR-8.
The subject of assay [12] is EKVX.
The subject of assay [13] is Malme-3M.
The test system of assay [14] is M14.
Assay [15] deals with MDA-MB-435.
The subject of assay [16] is HT-29.
Assay [17] relates to TK-10.
Assay [18] concerns 786-0.
Assay [19] relates to SNB-19.
Assay [20] has as its system NCI-H460.

The structures appear in SMILES notation.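 Grown in 96-well plates, cells were treated for 48 hours with each compound at five concentrations. Insufficient inhibition: endpoint recorded as highest concentration tested. GI50 = concentration required for 50% inhibition of growth.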 The source made the active and inactive calls. Cut-off read from the data, not from the text of the source: active = GI50 up to about 1.1 µM and inactive = higher. Where a SMILES comes first, the peptide text is derived from it. [ ]: non-standard residue; d: D form. The star is where a group is joined. Octanoyl = CCCCCCCC(=O)*; Aib = CC(C)(N)C(=O)O; tBu = CC(C)(C)*

Consider `O=S(=O)(Nc1ccccc1S(=O)(=O)c1ccccc1)c1ccccc1`, for which the GI50 in assay [1] is 76.9 µM (inactive); in assay [2] it was 59.3 µM (inactive); in [3], 38.1 µM (inactive); in assay [4] it was > 100 µM (inactive); in assay [5], 57.1 µM (inactive); in assay [6] it was 91.8 µM (inactive). For the same compound, the GI50 in assay [7] was > 100 µM (inactive); in [8], 94.4 µM (inactive); in [9], > 100 µM (inactive); in [10], > 100 µM (inactive); in assay [11], 68.5 µM (inactive); in [12], 29.4 µM (inactive). Further, the GI50 in assay [13] was 69.5 µM (inactive); in assay [14], > 100 µM (inactive); in assay [15], > 100 µM (inactive); in [16], 48 µM (inactive); in [17] it was > 100 µM (inactive); in assay [18], > 100 µM (inactive). Also, in assay [19], the GI50 was > 100 µM (inactive).
With `CN(C)CCNc1ccc(CO)c2oc3ccc(O)cc3c(=O)c12`, the GI50 is 15.7 µM (inactive) in assay [1]; 13.3 µM (inactive) in assay [2]; 4.24 µM (inactive) in assay [20]; 8.97 µM (inactive) in assay [3]; 12.8 µM (inactive) in assay [4]; 21.3 µM (inactive) in assay [5]. In addition, the GI50 in [6] was 12.7 µM (inactive); in assay [7], 16.8 µM (inactive); in [8] it was 14.2 µM (inactive); in assay [9] it was 11.7 µM (inactive); in [10], 12.9 µM (inactive); in assay [11], 7.14 µM (inactive). For the same compound, the GI50 is 21.9 µM (inactive) in [12]; 13.5 µM (inactive) in assay [13]; 15.7 µM (inactive) in [14]; 13.8 µM (inactive) in assay [15]; 11.3 µM (inactive) in [16]; 17.1 µM (inactive) in assay [17]. The GI50 in assay [18] was 8.61 µM (inactive); in assay [19], 17.1 µM (inactive).
On to `O=C(O)c1cc(N(Cc2ccccc2O)Cc2cc(O)ccc2O)ccc1O` [LAVENDUSTIN A], for which the GI50 in assay [1], in assay [2], in [20], in assay [3], in assay [4] and in assay [5] was > 100 µM (inactive) each time. Besides, the GI50 in [6], in [7], in [8], in assay [9], in assay [10] and in [11] was > 100 µM (inactive) throughout. Moreover, the GI50 in assay [12], in [13], in assay [14], in [15], in assay [16] and in assay [17] was > 100 µM (inactive) each time. In addition, the GI50 in assay [18] and in assay [19] was > 100 µM (inactive) in each case.
Turning to `c1ccc2c(-c3cnc(-c4c[nH]c5ccccc45)cn3)c[nH]c2c1`, the GI50 is 28.6 µM (inactive) in assay [1]; 66.5 µM (inactive) in [2]; 46.9 µM (inactive) in assay [20]; 34.4 µM (inactive) in assay [3]; 19.1 µM (inactive) in assay [4]; 74.5 µM (inactive) in [5]. The GI50 was > 100 µM (inactive) in [6]; 46.1 µM (inactive) in assay [7]; 20.2 µM (inactive) in assay [8]; 31.4 µM (inactive) in assay [10]; 39.4 µM (inactive) in assay [11]; 73.6 µM (inactive) in assay [12]. The GI50 in assay [13] was 38.9 µM (inactive); in assay [14], 29.1 µM (inactive); in assay [15], 24.9 µM (inactive); in assay [17], 47.1 µM (inactive); in assay [18] it was 38.1 µM (inactive); in assay [19], 58.7 µM (inactive).
Turning to `CCCCCCCC(=O)NC(C)(C)C(=O)NC(COC(C)(C)C)C(=O)NC(CC(C)C)C(=O)NC(C)(C)C(=O)NC(COC(C)(C)C)C(=O)NC(COC(C)(C)C)C(=O)NC(CC(C)C)C(=O)NC(C)(C)C(=O)NC(COC(C)(C)C)C(=O)NC(C(=O)NC(CC(C)C)C(=O)OC)C(C)CC` (stereo not given) (Octanoyl-[Aib]S(tBu)L[Aib]S(tBu)S(tBu)L[Aib]S(tBu)IL-OMe; configuration not given here), the GI50 in assay [1] is 4.43 µM (inactive); in assay [2], 6.38 µM (inactive); in assay [20] it was 5.64 µM (inactive); in assay [3], 6.55 µM (inactive); in assay [4], 8.65 µM (inactive); in [5] it was > 25 µM (inactive). Also, the GI50 in [6] was 5.5 µM (inactive); in assay [7], 6.5 µM (inactive); in assay [8], 6.4 µM (inactive); in assay [9], 7.33 µM (inactive); in [10] it was 7.57 µM (inactive); in [11], 8.65 µM (inactive). The GI50 in assay [12] was 6.22 µM (inactive); in [14], 6.32 µM (inactive); in [15] it was 7.94 µM (inactive); in [16], 4.94 µM (inactive); in assay [17] it was 7.14 µM (inactive); in [18] it was 7.89 µM (inactive). In addition, in assay [19], the GI50 is 7.55 µM (inactive).
Take `C=C(Br)C/N=C/N(C)C`: the GI50 in assay [1], in [2], in [3], in assay [4], in assay [5] and in [6] was > 100 µM (inactive) in each case. The GI50 in assay [7], in assay [8], in assay [9], in [10], in assay [11] and in [12] was > 100 µM (inactive) in each case. Further, the GI50 in assay [13], in assay [14], in assay [15], in [16], in [17] and in assay [18] was > 100 µM (inactive) throughout. Moreover, the GI50 in assay [19] is > 100 µM (inactive).
For `CC[C@@]1(O)C(=O)OCc2c1cc1n(c2=O)Cc2c-1nc1ccccc1c2/C=N\NC(=O)C(N)Cc1ccc(O)cc1` (stereo not given in full), the GI50 was 1.27 µM (inactive) in assay [1]; 0.285 µM (active) in assay [2]; 0.187 µM (active) in [20]; 12.6 µM (inactive) in assay [3]; 3.35 µM (inactive) in assay [4]; 1.33 µM (inactive) in assay [5]. Also, the GI50 in assay [6] was 0.813 µM (active); in assay [8], 0.46 µM (active); in assay [9], 0.15 µM (active); in assay [10], 0.228 µM (active); in assay [11], 0.809 µM (active); in assay [12] it was 2.57 µM (inactive). Besides, the GI50 in assay [13] was 1.35 µM (inactive); in assay [14], 0.587 µM (active); in assay [15] it was 1.61 µM (inactive); in [16] it was 1.36 µM (inactive); in assay [17], > 31.6 µM (inactive); in [18], 0.374 µM (active). The GI50 in assay [19] is 0.267 µM (active).
Turning to `CN1C(=O)c2ccccc2NC(=O)C12O[C@@H]2c1ccccc1` (stereo not given in full), the GI50 in assay [1], in assay [2], in assay [20], in assay [3], in assay [4] and in assay [5] was > 100 µM (inactive) each time. For the same compound, the GI50 in [6], in [7], in [8], in assay [10], in assay [11] and in [12] was > 100 µM (inactive) each time. Moreover, the GI50 in assay [13], in [14], in [15], in assay [16], in assay [17] and in assay [18] was > 100 µM (inactive) each time. The GI50 in assay [19] was > 10 µM (inactive).
Regarding `O=c1/c(=C/c2ccc(-c3ccc(Cl)cc3Cl)o2)sc2n1[C@@H](c1ccc(Cl)cc1)C=C(c1cc(F)c(Cl)cc1Cl)N=2`, the GI50 was 26.1 µM (inactive) in [1]; 19.2 µM (inactive) in assay [2]; 60.3 µM (inactive) in [20]; 78.5 µM (inactive) in assay [3]; 53.8 µM (inactive) in assay [4]; 50.8 µM (inactive) in assay [5]. Besides, the GI50 in assay [6] was 2.05 µM (inactive); in assay [7] it was > 100 µM (inactive); in assay [8], 53.2 µM (inactive); in assay [9] it was 22 µM (inactive); in assay [10], 76.4 µM (inactive); in assay [11], 45.7 µM (inactive). The GI50 in [13] is > 100 µM (inactive); in [14], > 100 µM (inactive); in assay [15] it was 54.3 µM (inactive); in assay [16], 39.8 µM (inactive); in [17], 13.4 µM (inactive); in [18], 45.3 µM (inactive). The GI50 in assay [19] was 35.6 µM (inactive).
For the compound `COc1cc(/C=C2\N=C(c3ccccc3)N(c3cc4cc(Sc5ccccc5)ccc4[nH]3)C2=O)ccc1O`, the GI50 was 6.12 µM (inactive) in assay [1]; 5.52 µM (inactive) in assay [2]; 2.36 µM (inactive) in assay [20]; 2.35 µM (inactive) in [3]; 1.07 µM (active) in [4]; 3.13 µM (inactive) in assay [5]. Further, the GI50 in [6] was 0.102 µM (active); in assay [7], > 50 µM (inactive); in assay [9], > 50 µM (inactive); in [10] it was 7.87 µM (inactive); in [11] it was 12.3 µM (inactive); in assay [12], 22.1 µM (inactive). Moreover, the GI50 was 1.43 µM (inactive) in [13]; 3.65 µM (inactive) in [14]; 1.46 µM (inactive) in assay [15]; 3.51 µM (inactive) in [16]; 9.59 µM (inactive) in assay [18]; > 50 µM (inactive) in [19].

The record behind these values is ChEMBL document CHEMBL1201862, “PubChem BioAssay data set” (2004).
